# Values quoted from earlier work as cited in patent US20190027771A1, “ACID GAS REGENERABLE BATTERY” (Commonwealth Scientific and Industrial Research Organisation, priority 2015, published 2019).
# Conditions: Table 2
row,pKa,Molecule
1,9.6,"NCCCn1ccnc1 [1-(3-aminopropyl)-imidazole, 1-(3-aminopropyl)imidazole]"
2,9.3,"NCCOCCO [2-(2-Aminoethoxy)-ethanol, 2-(2-Aminoethoxy)ethanol]"
3,11.27,CC1CCNCC1 [4-methylpiperidine]
4,10.5,NCCCCCO [5-Amino-1-pentanol]
5,10.81,CCCCCN [Amylamine]
6,9.47,N[C@@H](CCC(=O)O)C(=O)O [Glutamic acid]
7,9.69,C[C@H](N)C(=O)O [L-Alanine]
8,9.1,C[C@@H](O)[C@H](N)C(=O)O [L-Threonine]
9,10.05,CNCC(=O)O [Sarcosine]
11,9.1,"CC(O)CNCC(C)O (stereo not drawn) [bis(2-hydroxypropyl)-amine, bis(2-hydroxypropyl)amine]"
12,10.9,NCCCCCCN [hexamethylenediamine]
13,9.2,NCc1cccc(CN)c1 [m-Xylylenediamine]

row,Molecule,pKa
1,"1,3 Diaminopropane",10.4
2,Pyrrolidine,11.35

# Same assay, conditions: Table 3
row,pKa,Molecule
1,10.5,NCCCCCO [5-Amino-1-pentanol]
2,10.9,NCCCCCCN [hexamethylenediamine]

row,Molecule,pKa
1,"1,3 Diaminopropane",10.4

# Conditions: reduction of the free metal ion to the metal
row,Molecule,Cathode reaction potential E
1,[Ag+] [Ag^+],E = +0.80 V
2,[Cd+2] [Cd^2+],E = −0.403 V
3,[Co+2] [Co^2+],E = −0.277 V
4,[Cu+2] [Cu^2+],E = +0.34 V
5,[Hg+2] [Hg^2+],E = +0.8535 V
6,[Ni+2] [Ni^2+],E = −0.257 V
7,[Pd+2] [Pd^2+],E = +0.915 V
8,[Pt+2] [Pt^2+],E = +1.188 V
9,[Zn+2] [Zn^2+],E = −0.763 V

# Same assay, conditions: reduction of the metal-ammine complex to the metal and NH3
row,Molecule,Anode reaction potential E
1,N.N.[Ag+] [[Ag(NH3)2]^+],E = +0.37 V
2,N.N.N.N.[Cd+2] [[Cd(NH3)4]^2+],E = −0.622 V
3,N.N.N.N.[Co+2] [[Co(NH3)4]^2+],E = −0.422 V
4,N.N.N.N.[Cu+2] [[Cu(NH3)4]^2+],E = −0.04 V
5,N.N.N.N.[Hg+2] [[Hg(NH3)4]^2+],E = +0.283 V
6,N.N.N.N.N.N.[Ni+2] [[Ni(NH3)6]^2+],E = −0.49 V
7,N.N.N.N.[Pd+2] [[Pd(NH3)4]^2+],E = 0.0 V
8,N.N.N.N.N.N.[Pt+2] [[Pt(NH3)6]^2+],E = +0.144 V
9,N.N.N.N.[Zn+2] [[Zn(NH3)4]^2+],E = −1.04 V
